From patent publication US5859007A, “CCK or gastrin modulating benzo [b][1,4] diazepines derivatives” (Glaxo Wellcome Inc., priority 1994, dated 1999) come the findings set out here.

For this assay, the system named is isolated guinea pig gallbladder. The assay can be described thus: Functional activity in isolated guinea pig gallbladder preparation. It counts as cell-based. The conditions noted are these: expressed as % CCK-induced maximal response; for activation at 1 µM / activation at 30 µM: Cavia porcellus; for activation at 1 µM / %Contraction (1 × 10^-6 M): 1 × 10^-6 M test compound; for activation at 1 µM: read-out: %Contraction (1 × 10^-6 M); for activation at 30 µM: read-out: % Contraction (3 × 10^-5 M). How it is done: 3. GUINEA PIG GALL BLADDER ASSAY
Gallbladders are removed from guinea pigs sacrificed by cervical dislocation. The isolated gallbladders are cleaned of adherent connective tissue and cut into two rings from each animal (2-4 mm in length). The rings are subsequently suspended in organ chambers containing a physiological salt solution (118.4 mM NaCl, 4.7 mM KCl, 1.2 mM MgSO4, 2.5 mM CaCl2, 1.2 mM KH2 […], 25 mM NaHCO3, 11.1 mM dextrose). The bathing solution is maintained at 37° C. and aerated with 95% O2 /5% CO2. Tissues are connected via gold chains and stainless steel mounting wires to isometric force displacement transducers (Grass, Model FT03 D). Responses are then recorded on a polygraph (Grass, Model 7E).
Rings are gradually stretched (over a 120 min. period) to a basal resting tension of 1 gm which is maintained throughout the experiment. During the basal tension adjustment period, the rings are exposed to acetylcholine (10^-6 M) four times to verify tissue contractility. The tissues are then exposed to a submaximal dose of sulfated CCK-8 (Sigma, 3×10^-9 M). After obtaining a stable response, the tissues are washed out 3 times rapidly and every 5 to 10 minutes for 1 hour to reestablish a stable baseline.
Compounds are dissolved in dimethylsulfoxide ([…]) followed by a concentration-response curve to sulfated CCK-8 (10^-10 to 10^-6 M) in the presence of the highest dose of the test compound. As a final test, ACH (10 mM) is added to induce maximal contraction. A minimum of three determinations of activity are made for each test compound.

SMILES strings stand for the structures.

As for `CC(C)N(C(=O)CN1C(=O)C(C)(CCCC(=O)Nc2ccccc2)C(=O)N(c2ccccc2)c2ccccc21)c1ccccc1` (centres unmarked) [Example 15, N-Isopropyl-N-phenyl-2-(3-methyl-2,4-dioxo-5-phenyl-3-phenylcarbamoylpropyl-2,3,4,5-tetrahydro-benzo[b][1,4]diazepin-1-yl) acetamide], the activation at 1 µM stood at 54%.

With `CC(C)N(C(=O)CN1C(=O)C(C)(Cc2c[nH]c3ccccc23)C(=O)N(c2ccccc2)c2ccccc21)c1ccccc1` (centres unmarked) [Example 19, 2-[3-(1H-indol-3-ylmethyl)-3-methyl-2,4-dioxo-5-phenyl-2,3,4,5-tetrahydro-benzo[b][1,4]diazepin-1-yl]-N-isopropyl-N-phenyl acetamide], the activation at 30 µM (3 × 10^-5 M test compound) turned out to be 76%.

Regarding `CC(C)N(C(=O)CN1C(=O)C(Cc2n[nH]c3cc(F)ccc23)C(=O)N(c2ccccc2)c2ccccc21)c1ccc(F)cc1` (centres unmarked) [Example 63, 2-[3-(6-Fluoro-1H-indazol-3-ylmethyl)-2,4-dioxo-5-phenyl-2,3,4,5,tetrahydro-benzo[b][1,4]diazepin-1-yl]-N-(4-fluoro-phenyl)-N-isopropyl-acetamide], the activation at 1 µM came out at 77%. Under “3 × 10^-5 M test compound”, the activation at 30 µM turned out to be 96%.

Consider `COc1ccc(N(C(=O)CN2C(=O)C(Cc3ccc4ccccc4c3)C(=O)N(c3ccccc3)c3ccccc32)C(C)C)cc1` (centres unmarked) [Example 36, N-Isopropyl-N-(4-methoxy-phenyl)-2-(3-naphthalen-2-ylmethyl-2,4-dioxo-5-phenyl-2,3,4,5-tetrahydro-benzo[b][1,4]diazepin-1-yl) acetamide], for which the activation at 1 µM is 19%.

As for `CC(C)N(C(=O)CN1C(=O)C(C)(CC(=O)Nc2ccccc2)C(=O)N(c2ccccc2)c2ccccc21)c1ccccc1` (centres unmarked) [Example 4, 2-(2,4-Dioxo-5-phenyl-3-methyl-3-phenylcarbamoylmethyl-2,3,4,5-tetrahydro-benzo[b][1,4]diazepin-1-yl)-N-isopropyl-N-phenyl acetamide], the activation at 1 µM came to 80%. Also, the activation at 30 µM (3 × 10^-5 M test compound) was 79%.

On to `COc1ccc(N(C(=O)CN2C(=O)C(Cc3n[nH]c4ccccc34)(OC)C(=O)N(c3ccccc3)c3ccccc32)C(C)C)cc1` (centres unmarked) [Example 43, 2-[3-(1H-Indazol-3-ylmethyl)-3-methoxy-2,4-dioxo-5-phenyl-2,3,4,5-tetrahydro-benzo[b][1,4]diazepin-1-yl]-N-isopropyl-N-(4-methoxy-phenyl) acetamide], for which the activation at 30 µM (3 × 10^-5 M test compound) amounted to 61%.

For the molecule `COc1ccc(N(C(=O)CN2C(=O)C(C)(Cc3n[nH]c4ccccc34)C(=O)N(c3cccnc3)c3ccccc32)C(C)C)cc1` (centres unmarked) [Example 76, 2-[3-(1H-indazol-3-ylmethyl)-3-methyl-2,4-dioxo-5-pyridin-3-yl-2,3,4,5-tetrahydro-benzo[b][1,4]diazepin-1-yl]-N-isopropyl-N-(4-methoxy-phenyl)-acetamide], the “%Contraction (1 × 10^-6 M)” value worked out at 93%. The “% Contraction (3 × 10^-5 M)” value (3 × 10^-5 M test compound) stood at 95%.

In the case of `COc1ccc(N(C(=O)CN2C(=O)C(C)(Cc3n[nH]c4ccccc34)C(=O)N(c3ccccc3)c3ccccc32)C(C)C)cc1` (centres unmarked) [Example 30, 2-[3-(1H-Indazol-3-ylmethyl)-3-methyl-2,4-dioxo-5-phenyl-2,3,4,5-tetrahydro-benzo[b][1,4]diazepin-1-yl]-N-isopropyl-N-(4-methoxy-phenyl) acetamide], the activation at 1 µM worked out at 75%. The activation at 30 µM (3 × 10^-5 M test compound) was 70%.

For `COc1ccc(N(C(=O)CN2C(=O)C(Cc3noc4ccccc34)C(=O)N(c3ccccc3)c3ccccc32)C(C)C)cc1` (centres unmarked) [Example 47, 2-(3-Benzo[d]isoxazol-3-ylmethyl-2,4-dioxo-5-phenyl-2,3,4,5-tetrahydro-benzo[b][1,4]diazepin-1-yl)-N-isopropyl-N-(4-methoxy-phenyl) acetamide], the activation at 1 µM was determined as 92%.

In the case of `COc1ccc(N(C(=O)CN2C(=O)C(CC(=O)Nc3ccccc3)C(=O)N(c3ccccc3)c3ccccc32)C(C)C)cc1` (centres unmarked) [Example 39, 2-(2,4-dioxo-5-phenyl-3-phenylcarbamoylmethyl-2,3,4,5-tetrahydro-benzo[b][1,4]diazepin-1-yl)-N-isopropyl-N-(4-methoxy-phenyl)-acetamide], the “%Contraction (1 × 10^-6 M)” value amounted to 57%.

As for `COc1ccc(N(C(=O)CN2C(=O)C(Cc3nn(Cc4ccccc4)c4ccccc34)C(=O)N(c3ccccc3)c3ccccc32)C(C)C)cc1` (centres unmarked) [Example 27, 2-[3-(1-Benzyl-1H-indazol-3-ylmethyl)-2,4-dioxo-5-phenyl-2,3,4,5-tetrahydro-benzo[b][1,4]diazepin-1-yl]-N-isopropyl-N-(4-methoxy-phenyl) acetamide], the activation at 30 µM (3 × 10^-5 M test compound) is 40%.

As for `COc1ccc(N(C(=O)CN2C(=O)C(C)(Cc3cccc4ccccc34)C(=O)N(c3ccccc3)c3ccccc32)C(C)C)cc1` (centres unmarked) [Example 35, N-Isopropyl-N-(4-methoxy-phenyl)-2-(3-methyl-3-naphthalen-1-ylmethyl-2,4-dioxo-5-phenyl-2,3,4,5-tetrahydro-benzo[b][1,4]diazepin-1-yl) acetamide], the activation at 1 µM was found to be 44%.

In the case of `CCOC(=O)c1cccc(NC(=O)CC2C(=O)N(CC(=O)N(c3ccccc3)C(C)C)c3ccccc3N(c3ccccc3)C2=O)c1` (centres unmarked) [Example 1], the activation at 30 µM (3 × 10^-5 M test compound) was found to be 64%.

On to `CC(C)N(C(=O)CN1C(=O)C(C)(C(C)C(=O)c2ccccc2)C(=O)N(c2ccccc2)c2ccccc21)c1ccccc1` (centres unmarked) [Example 8, N-Isopropyl-2-[3-methyl-2,4-dioxo-3-(1-phenyl-1-oxoprop-2-yl)-5-phenyl-2,3,4,5-tetrahydro-benzo[b][1,4]diazepin-1-yl]-N-phenyl acetamide], for which the “%Contraction (1 × 10^-6 M)” value turned out to be 16%.

In the case of `COc1ccc(N(C(=O)CN2C(=O)C(Cc3cccc4ccccc34)C(=O)N(c3ccccc3)c3ccccc32)C(C)C)cc1` (centres unmarked) [Example 34, N-Isopropyl-N-(4-methoxy-phenyl)-2-(3-naphthalen-1-ylmethyl-2,4-dioxo-5-phenyl-2,3,4,5-tetrahydro-benzo[b][1,4]diazepin-1-yl) acetamide], the activation at 1 µM amounted to 47%.

For `COc1ccccc1N(C(=O)CN1C(=O)C(Cc2n[nH]c3ccccc23)C(=O)N(c2ccccc2)c2ccccc21)C(C)C` (centres unmarked) [Example 78, 2-[3-(1H-Indazol-3-ylmethyl)-2,4-dioxo-5-phenyl-2,3,4,5-tetrahydrobenzo[b][1,4]diazepin-1-yl]-N-isopropyl-N-(2-methoxy-phenyl) acetamide], the activation at 1 µM was determined as 43%.

Consider `CC(C)N(C(=O)CN1C(=O)C(C)(CC=Cc2ccccc2)C(=O)N(c2ccccc2)c2ccccc21)c1ccccc1` (centres unmarked) [Example 11, N-Isopropyl-2-[3-methyl-2,4-dioxo-5-phenyl-3-(3-phenyl-allyl)-2,3,4,5-tetrahydro-benzo[b][1,4]diazepin-1-yl]-N-phenyl acetamide], for which the activation at 1 µM was determined as 10%.

With `COc1ccc(N(C(=O)CN2C(=O)C(C)(CC(=O)Nc3ccccc3)C(=O)N(c3ccccc3)c3ccccc32)C(C)C)cc1` (centres unmarked) [Example 14, N-Isopropyl-N-(4-methoxy-phenyl)-2-(3-methyl-2,4-dioxo-5-phenyl-3-phenylcarbamoylmethyl-2,3,4,5-tetrahydro-benzo[b][1,4]diazepin-1-yl) acetamide], the activation at 30 µM (3 × 10^-5 M test compound) came to 64%.

Consider `COc1ccc(N(C(=O)CN2C(=O)C(Cc3n[nH]c4ccccc34)C(=O)N(c3ccncc3)c3ccccc32)C(C)C)cc1` (centres unmarked) [Example 80, 2-[3-(1H-Indazol-3-ylmethyl)-2,4-dioxo-5-pyridin-4-yl-2,3,4,5-tetrahydro-benzo[b][1,4]diazepin-1-yl]-N-isopropyl-N-(4-methoxy-phenyl)-acetamide], for which the activation at 1 µM came to 81%. Further, the activation at 30 µM (3 × 10^-5 M test compound) amounted to 73%.

On to `COc1ccc(N(C(=O)CN2C(=O)C(Cc3nn(Cc4ccccc4)c4ccccc34)(OC)C(=O)N(c3ccccc3)c3ccccc32)C(C)C)cc1` (centres unmarked) [Example 42, 2-[3-(1-Benzyl-1H-Indazol-3-ylmethyl)-3-methoxy-2,4-dioxo-5-phenyl-2,3,4,5-tetrahydro-benzo[b][1,4]diazepin-1-yl]-N-isopropyl-N-(4-methoxy-phenyl) acetamide], for which the activation at 1 µM came to 16%.

Turning to `COc1ccc(N(C(=O)CN2C(=O)C(Cc3n[nH]c4ccccc34)C(=O)N(c3ccccc3)c3cc(F)c(F)cc32)C(C)C)cc1` (centres unmarked) [Example 67, 2-[7,8-Difluoro-3-(1H-indazol-3-ylmethyl)-2,4-dioxo-5-phenyl-2,3,4,5-tetrahydro-benzo[b][1,4]diazepin-1-yl]-N-isopropyl-N-(4-methoxy-phenyl)-acetamide], the activation at 1 µM came out at 78%. Further, the activation at 30 µM (3 × 10^-5 M test compound) worked out at 102%.

`COc1ccc(N(C(=O)CN2C(=O)C(C)(CC(=O)Nc3ccccc3)C(=O)N(c3cccnc3)c3ccccc32)C(C)C)cc1` (centres unmarked) [Example 84, N-Isopropyl-N-[4-methoxyphenyl]-2-[3-methyl-2,4-dioxo-3-phenylcarbamoylmethyl-5-pyridin-3-yl-2,3,4,5-tetrahydrobenzo[b][1,4]diazepin-1-yl) acetamide]: the activation at 1 µM came out at 96%. The activation at 30 µM (3 × 10^-5 M test compound) came to 96%.
